# “And” between values parts separate entries of the source, which are not always exact repeats. Identical values can stand only once.
# Legend:
# [1] = tested on: Interleukin-6 (IL-6); test: Cytokine assay, stimulation of peripheral blood mononuclear cells, ELISA; assay type: cell-based, human
# Description: (§1) Isolation of peripheral blood mononuclear cells (PBMCs) from 5 healthy individuals was performed as described elsewhere (108). Briefly, venous blood was drawn into 10 ml tubes containing 0.2 mg of EDTA (Monoject's-Hertogenbosch, NL). The PBMC fraction was obtained by density centrifugation of blood using Ficoll-Paque (Pharmacia Biotech AB, Sweden). […] The PBMCs were incubated in 96-well tissue culture plates (Greiner, Alphen, NL) at a concentration of 5×10^5 cells per well in a total volume of 200 μl, in the presence or absence of a set of stimuli in different experiments. […] After 24 h of incubation, the supernatants were collected and stored at -80° C. until analysis. Interleukin-6 (IL-6) and tumor necrosis factor (TNF) were measured by ELISA according to the manufacturer's protocol ([…], CLB, Amsterdam, NL). […] Agilent Technologies) with a linear AB gradient (0.2% acetonitrile/min) at a flow rate of 2 ml/min, where mobile phase A was 0.1% aqueous TFA in water and B was 0.1% TFA in acetonitrile. The purity of peptides was verified by analytical RP-HPLC. The peptides were further characterized by electrospray mass spectrometry and amino acid analysis.
# [2] = tested on: tumor necrosis factor (TNF); test: as above; assay type: cell-based, human
# Description: as §1
# [3] = tested on: human red blood cells; test: Hemolytic activity (MHC50/HC50), 18 h microtiter dilution; assay type: cell-based; conditions: for Hemolytic activity Fold (fold improvement in HC50 compared to that of D4): relative to D4
# Description: Hemoglobin release was determined spectrophotometrically at 570 nm. […] MHC50 was determined by plot the concentration-lysis format.
# [4] = peptide concentration 0.01 μg/ml
# [5] = peptide concentration 100 μg/ml
smiles,measurement,setting,value
CC[C@@H](C)[C@@H](NC(=O)[C@@H](C)NC(=O)[C@@H](CCCCN)NC(=O)[C@@H](CC(C)C)NC(=O)[C@@H](C)NC(=O)[C@H](NC(=O)[C@@H](Cc1c[nH]cn1)NC(=O)[C@@H](CC(C)C)NC(=O)[C@H](NC(=O)[C@H](NC(=O)[C@@H](CCCCN)NC(=O)[C@@H](CCCCN)NC(=O)[C@@H](C)NC(=O)[C@@H](CO)NC(=O)[C@@H](CCCCN)NC(=O)[C@@H](Cc1ccccc1)NC(=O)[C@H](NC(=O)[C@@H](CCCCN)NC(=O)[C@@H](CC(C)C)NC(=O)[C@@H](Cc1ccccc1)NC(=O)[C@@H](CO)NC(=O)[C@@H](CCCCN)NC(=O)[C@@H](Cc1c[nH]c2ccccc12)NC(=O)[C@@H](CCCCN)NC(C)=O)[C@H](C)O)[C@H](C)O)C(C)C)[C@H](C)O)C(=O)N[C@H](CO)C(=O)N[C@H](CO)C(N)=O [D1],IL-6 Exp 1,[1]; [4],<3 pg/mL
same,IL-6 Exp 2,"[1]; peptide concentration 0.01 μg/ml, Exp 2",<3 pg/mL
same,IL-6 Exp 1,[1]; [5],<3 pg/mL
same,TNF Exp 1,[2]; [4],<0.015 ng/mL
same,TNF Exp 2,[2]; [4],<0.015 ng/mL
same,TNF Exp 1,[2]; peptide concentration 1 μg/ml,<0.015 ng/mL
same,TNF Exp 2,[2]; peptide concentration 1 μg/ml,<0.015 ng/mL
same,TNF Exp 1,[2]; [5],<0.015 ng/mL
same,TNF Exp 2,[2]; [5],<0.015 ng/mL
same,Hemolytic activity HC50,"[3]; further experiments, 50% hemolysis of human red blood cells after 18 h",421.5 µg/mL
same,Hemolytic activity Fold (fold improvement in HC50 compared to that of D4),[3]; further experiments,120 fold
same,Hemolytic activity HC50,"[3]; peptide concentration that produces 50% hemolysis of human red blood cells after 18 h, standard microtiter dilution method",1000 µg/mL and 1000.0 µg/mL
same,Hemolytic activity Fold (fold improvement in HC50 compared to that of D4),[3],286 fold

# — US20100099614A1, “Antimicrobial Peptides and Methods of Use” (priority 2008, published 2010)
